# Measurements as given in patent US20240317743A1, “Solid Forms of BCL-2 Inhibitors, Method of Preparation, and Use Thereof” (BeiGene, Ltd., priority 2021, published 2024).
# What was measured:
# Type in all cases: physicochemical
# [1] = Storage at RT, form checked by XRPD overlay
# Protocol: Form K was speculated as a methyl acetate solvate.
# Thus, Form L was speculated as a metastable anhydrate/hydrate which could be de-solvated from the wet cake from the solvent system.
# (peak) before decomposition (FIG. 16B). According to the integration of ^1H NMR result (FIG. 16C), the theoretical weight of chlorobenzene was calculated as 9.8%, which matched with the TGA weight loss. […] After heating the sample to 140° C., more diffraction peaks disappeared. Combined with the TGA, ^1H NMR data and heating experiment, Form P was speculated as a chlorobenzene solvate.
# [2] = Physical stability: storage under humidity/temperature, form checked by XRPD
# Protocol: To evaluate the physicochemical stability, store 1˜3 mg of Forms B, S, M, R, F, H and N samples were stored under 25° C./60% RH or 40° C./75% RH conditions for one week (unsealed) or 80° C. condition for 24 hrs (sealed).
# [3] = DVS (Method B) water sorption / hygroscopicity; conditions: 25° C.; for water sorption: at 95% RH
# Protocol: DVS of Form A and U was also measured via an SMS (Surface Measurement Systems) DVS Intrinsic (Method B). The relative humidity at 25° C. was calibrated against deliquescence point of LiCl, Mg(NO3)2, and KCL. Parameters for DVS test are listed as follows. [table]
# [4] = Long term and accelerated physical and chemical stability test, impurities by HPLC
# Protocol: Long term and accelerated stability studies were conducted in different physical forms of Compound 1, by storing the samples at 25±2° C./60±5% RH and 40±2° C./75±5% RH conditions for up to 6 months. And, the content of the total impurities of each sample was tested by HPLC.
# [5] = Solid form solubility, concentration by HPLC at 24 hours; conditions: listed as Compound 1 Form A
# Protocol: The solubility of Compound 1 in different physical forms was tested in water, 0.1 N HCl, pH 4.5 acetate buffer and pH 6.8 phosphate buffer. At 24 hours of time point, the concentration of Compound 1 was detected by HPLC.
# [6] = 25° C./60% RH, one week, unsealed
# [7] = 40° C./75% RH, one week, unsealed
# [8] = 25±2° C./60±5% RH and 40±2° C./75±5% RH, up to 6 months
compound,measurement,setting,value
"CC(C)c1ccccc1[C@@H]1CCCN1C1CC2(CCN(c3ccc(C(=O)NS(=O)(=O)c4ccc(NCC5CCC(C)(O)CC5)c([N+](=O)[O-])c4)c(Oc4cnc5[nH]ccc5c4)c3)CC2)C1 (stereo partly drawn) [Form K, 2-((1H-pyrrolo[2,3-b]pyridin-5-yl)oxy)-N-((4-((((1r,4r)-4-hydroxy-4-methylcyclohexyl)methyl)amino)-3-nitrophenyl)sulfonyl)-4-(2-((S)-2-(2-isopropylphenyl)pyrrolidin-1-yl)-7-azaspiro[3.5]nonan-7-yl)benzamide]",form change on storage (XRPD overlay),"[1]; RT, closed HPLC vial, ~5 weeks",converted to Form B of low crystallinity
"CC(C)c1ccccc1[C@@H]1CCCN1C1CC2(CCN(c3ccc(C(=O)NS(=O)(=O)c4ccc(NCC5CCC(C)(O)CC5)c([N+](=O)[O-])c4)c(Oc4cnc5[nH]ccc5c4)c3)CC2)C1 (stereo partly drawn) [Form S, 2-((1H-pyrrolo[2,3-b]pyridin-5-yl)oxy)-N-((4-((((1r,4r)-4-hydroxy-4-methylcyclohexyl)methyl)amino)-3-nitrophenyl)sulfonyl)-4-(2-((S)-2-(2-isopropylphenyl)pyrrolidin-1-yl)-7-azaspiro[3.5]nonan-7-yl)benzamide]",form change (XRPD overlay),[2]; [6],no form change
same,form change (XRPD overlay),[2]; [7],no form change
same,form change (XRPD overlay),"[2]; 80° C., sealed, 24 hrs",no form change
"CC(C)c1ccccc1[C@@H]1CCCN1C1CC2(CCN(c3ccc(C(=O)NS(=O)(=O)c4ccc(NCC5CCC(C)(O)CC5)c([N+](=O)[O-])c4)c(Oc4cnc5[nH]ccc5c4)c3)CC2)C1 (stereo partly drawn) [Form R, 2-((1H-pyrrolo[2,3-b]pyridin-5-yl)oxy)-N-((4-((((1r,4r)-4-hydroxy-4-methylcyclohexyl)methyl)amino)-3-nitrophenyl)sulfonyl)-4-(2-((S)-2-(2-isopropylphenyl)pyrrolidin-1-yl)-7-azaspiro[3.5]nonan-7-yl)benzamide]",form change (XRPD overlay),[2]; [6],no form change was observed
same,form change (XRPD overlay),[2]; [7],no form change was observed
same,form change (XRPD overlay),"[2]; 80° C., sealed, 24 hrs",converted to a form which was similar to Form S
"CC(C)c1ccccc1[C@@H]1CCCN1C1CC2(CCN(c3ccc(C(=O)NS(=O)(=O)c4ccc(NCC5CCC(C)(O)CC5)c([N+](=O)[O-])c4)c(Oc4cnc5[nH]ccc5c4)c3)CC2)C1 (stereo partly drawn) [Form L, 2-((1H-pyrrolo[2,3-b]pyridin-5-yl)oxy)-N-((4-((((1r,4r)-4-hydroxy-4-methylcyclohexyl)methyl)amino)-3-nitrophenyl)sulfonyl)-4-(2-((S)-2-(2-isopropylphenyl)pyrrolidin-1-yl)-7-azaspiro[3.5]nonan-7-yl)benzamide]",form change on storage,[1]; storage at RT,converted to Form I
"CC(C)c1ccccc1[C@@H]1CCCN1C1CC2(CCN(c3ccc(C(=O)NS(=O)(=O)c4ccc(NCC5CCC(C)(O)CC5)c([N+](=O)[O-])c4)c(Oc4cnc5[nH]ccc5c4)c3)CC2)C1 (stereo partly drawn) [Form F, 2-((1H-pyrrolo[2,3-b]pyridin-5-yl)oxy)-N-((4-((((1r,4r)-4-hydroxy-4-methylcyclohexyl)methyl)amino)-3-nitrophenyl)sulfonyl)-4-(2-((S)-2-(2-isopropylphenyl)pyrrolidin-1-yl)-7-azaspiro[3.5]nonan-7-yl)benzamide]",form change (XRPD overlay),[2]; [6],a mixture of Forms F and B was observed
same,form change (XRPD overlay),[2]; [7],a mixture of Forms F and B was observed
same,form change (XRPD overlay),"[2]; 80° C., sealed, 24 hrs",a mixture of Forms F and B was observed
"CC(C)c1ccccc1[C@@H]1CCCN1C1CC2(CCN(c3ccc(C(=O)NS(=O)(=O)c4ccc(NCC5CCC(C)(O)CC5)c([N+](=O)[O-])c4)c(Oc4cnc5[nH]ccc5c4)c3)CC2)C1 (stereo partly drawn) [Form U, 2-((1H-pyrrolo[2,3-b]pyridin-5-yl)oxy)-N-((4-((((1r,4r)-4-hydroxy-4-methylcyclohexyl)methyl)amino)-3-nitrophenyl)sulfonyl)-4-(2-((S)-2-(2-isopropylphenyl)pyrrolidin-1-yl)-7-azaspiro[3.5]nonan-7-yl)benzamide]",water sorption,[3]; listed as Compound 1 Form U,1.4%
same,hygroscopicity,[3]; listed as Compound 1 Form U,slightly hygroscopicity
same,change of chemical purity,"[4]; 25±2° C./60±5% RH and 40±2° C./75±5% RH, up to 6 months, listed as Compound 1 Form U",no significant change
same,total content of impurities,"[4]; after 6 months at 40±2° C./75±5% RH, listed as Compound 1 Form U",0.72%
same,total content of impurities,"[4]; before storage (initial), listed as Compound 1 Form U",0.40%
"CC(C)c1ccccc1[C@@H]1CCCN1C1CC2(CCN(c3ccc(C(=O)NS(=O)(=O)c4ccc(NCC5CCC(C)(O)CC5)c([N+](=O)[O-])c4)c(Oc4cnc5[nH]ccc5c4)c3)CC2)C1 (stereo partly drawn) [Form H, 2-((1H-pyrrolo[2,3-b]pyridin-5-yl)oxy)-N-((4-((((1r,4r)-4-hydroxy-4-methylcyclohexyl)methyl)amino)-3-nitrophenyl)sulfonyl)-4-(2-((S)-2-(2-isopropylphenyl)pyrrolidin-1-yl)-7-azaspiro[3.5]nonan-7-yl)benzamide]",form change (XRPD overlay),[2]; [6],no form change
same,form change (XRPD overlay),[2]; [7],no form change
same,form change (XRPD overlay),"[2]; 80° C., sealed, 24 hrs",an obvious decrease of crystallinity was observed
"CC(C)c1ccccc1[C@@H]1CCCN1C1CC2(CCN(c3ccc(C(=O)NS(=O)(=O)c4ccc(NCC5CCC(C)(O)CC5)c([N+](=O)[O-])c4)c(Oc4cnc5[nH]ccc5c4)c3)CC2)C1 (stereo partly drawn) [Form A, 2-((1H-pyrrolo[2,3-b]pyridin-5-yl)oxy)-N-((4-((((1r,4r)-4-hydroxy-4-methylcyclohexyl)methyl)amino)-3-nitrophenyl)sulfonyl)-4-(2-((S)-2-(2-isopropylphenyl)pyrrolidin-1-yl)-7-azaspiro[3.5]nonan-7-yl)benzamide]",water sorption,[3]; listed as Compound 1 form A,0.4%
same,hygroscopicity,[3]; listed as Compound 1 form A,slightly hygroscopic
same,solubility,[5]; 0.1 N HCl,29.36 µg/mL
same,solubility,[5]; pH 4.5 acetate buffer,0.76 µg/mL
same,solubility,[5]; pH 6.8 phosphate buffer,0.43 µg/mL
same,solubility,[5]; water,0.37 µg/mL
same,crystal form change,[4]; [8],no crystal form and optical purity changes
same,optical purity change,[4]; [8],no crystal form and optical purity changes
same,change of chemical purity,"[4]; 25±2° C./60±5% RH and 40±2° C./75±5% RH, up to 6 months, listed as Compound 1 Form A",no significant change
same,total content of impurities,"[4]; after 6 months at 40±2° C./75±5% RH, listed as Compound 1 Form A",0.52%
same,content of solvent EA,[4]; after storage in the stability study,~8.8 ×10^4 ppm
same,content of solvent EA,[4]; before storage (initial),about 9.5 ×10^4 ppm
same,total content of impurities,"[4]; before storage (initial), listed as Compound 1 Form A",0.40%
"CC(C)c1ccccc1[C@@H]1CCCN1C1CC2(CCN(c3ccc(C(=O)NS(=O)(=O)c4ccc(NCC5CCC(C)(O)CC5)c([N+](=O)[O-])c4)c(Oc4cnc5[nH]ccc5c4)c3)CC2)C1 (stereo partly drawn) [Form N, 2-((1H-pyrrolo[2,3-b]pyridin-5-yl)oxy)-N-((4-((((1r,4r)-4-hydroxy-4-methylcyclohexyl)methyl)amino)-3-nitrophenyl)sulfonyl)-4-(2-((S)-2-(2-isopropylphenyl)pyrrolidin-1-yl)-7-azaspiro[3.5]nonan-7-yl)benzamide]",form change (XRPD overlay),[2]; [6],converted to Form T
same,form change (XRPD overlay),[2]; [7],converted to Form T
same,form change (XRPD overlay),"[2]; 80° C., sealed, 24 hrs",converted to Form T
"CC(C)c1ccccc1[C@@H]1CCCN1C1CC2(CCN(c3ccc(C(=O)NS(=O)(=O)c4ccc(NCC5CCC(C)(O)CC5)c([N+](=O)[O-])c4)c(Oc4cnc5[nH]ccc5c4)c3)CC2)C1 (stereo partly drawn) [Form M, 2-((1H-pyrrolo[2,3-b]pyridin-5-yl)oxy)-N-((4-((((1r,4r)-4-hydroxy-4-methylcyclohexyl)methyl)amino)-3-nitrophenyl)sulfonyl)-4-(2-((S)-2-(2-isopropylphenyl)pyrrolidin-1-yl)-7-azaspiro[3.5]nonan-7-yl)benzamide]",form change (XRPD overlay),[2]; [6],no form change
same,form change (XRPD overlay),[2]; [7],no form change
same,form change (XRPD overlay),"[2]; 80° C., sealed, 24 hrs",no form change
